# Test results published in patent US6753337B2, “Alkynyl containing hydroxamic acid compounds as matrix metalloproteinase/tace inhibitors” (Wyeth Holdings Corporation, priority 1999, dated 2004).
# Structures can show the parent of a compound that is named as a salt.
# Experiments:
# Assay type in all cases: biochemical
# [1] = target: TNF-α converting enzyme (TACE) (Homo sapiens, UniProt P78536); assay: Test procedure for measuring TACE inhibition (fluorescent peptidyl substrate)
# Procedure: Using 96-well black microtiter plates, each well receives a solution composed of 10 μL TACE (final concentration 1 μg/mL), 70 μL Tris buffer, pH 7.4 containing 10% glycerol (final concentration 10 mM), and 10 μL of test compound solution in DMSO (final concentration 1 μM, DMSO concentration <1%) and incubated for 10 minutes at room temperature. The reaction is initiated by addition of a fluorescent peptidyl substrate (final concentration 100 μM to each well and then shaking on a shaker for 5 sec.
# The reaction is read (excitation 340 nm, emission 420 nm) for 10 min. and the increase in fluorescence over time is plotted as a linear line. The slope of the line is calculated and represents the reaction rate.
# The mean (x±sem) of the control rate is calculated and compared for statistical significance (p<0.05) with drug-treated rates using Dunnett's multiple comparison test.
# MMP-1 = target: T1, MMP-1 (Homo sapiens, UniProt P03956); assay: MMP-1 inhibition (thiopeptide or fluorescent peptide substrate); conditions: printed in the MMP1 IC50 column; concentration not given
# T1 sequence (P03956 100-469): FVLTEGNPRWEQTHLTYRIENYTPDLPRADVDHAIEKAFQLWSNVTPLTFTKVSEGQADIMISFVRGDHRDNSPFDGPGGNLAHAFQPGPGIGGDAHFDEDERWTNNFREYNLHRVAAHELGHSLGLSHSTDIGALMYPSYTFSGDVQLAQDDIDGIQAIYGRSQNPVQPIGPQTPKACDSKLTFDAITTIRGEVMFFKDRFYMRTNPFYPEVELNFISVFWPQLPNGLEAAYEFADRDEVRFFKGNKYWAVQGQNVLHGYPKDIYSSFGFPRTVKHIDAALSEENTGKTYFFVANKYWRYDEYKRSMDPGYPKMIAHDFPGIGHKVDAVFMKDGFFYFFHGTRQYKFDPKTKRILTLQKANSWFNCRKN
# Procedure: (§1) These standard pharmacological test procedures are based on the cleavage of a thiopeptide substrates such as Ac-Pro-Leu-Gly(2-mercapto-4-methyl-pentanoyl)-Leu-Gly-OEt by the matrix metalloproteinases MMP-1, MMP-13 (collagenases) or MMP-9 (gelatinase), which results in the release of a substrate product that reacts colorimetrically with DTNB (5,5′-dithiobis(2-nitro-benzoic acid)). The enzyme activity is measured by the rate of the color increase. The thiopeptide substrate is made up fresh as a 20 mM stock in 100% DMSO and the DTNB is dissolved in 100% DMSO as a 100 mM stock and stored in the dark at room temperature. Both the substrate and DTNB are diluted together to 1 mM with substrate buffer (50 mM HEPES pH 7.5, 5 mM CaCl2) before use. The stock of enzyme is diluted with buffer (50 mM HEPES, pH 7.5, 5 mM CaCl2, 0.02% Brij) to the desired final concentration. The buffer, enzyme, vehicle or inhibitor, and DTNB/substrate are added in this order to a 96 well plate (total reaction volume of 200 μl) and the increase in color is monitored spectrophotometrically for 5 minutes at 405 nm on a plate reader and the increase in color over time is plotted as a linear line.
# (§2) Alternatively, a fluorescent peptide substrate is used. In this test procedure, the peptide substrate contains a fluorescent group and a quenching group. Upon cleavage of the substrate by an MMP, the fluorescence that is generated is quantitated on the fluorescence plate reader. The assay is run in HCBC assay buffer (50 mM HEPES, pH 7.0, 5 mM Ca^+2, 0.02% Brij, 0.5% Cysteine), with human recombinant MMP-1, MMP-9, or MMP-13. The substrate is dissolved in methanol and stored frozen in 1 mM aliquots. For the assay, substrate and enzymes are diluted in HCBC buffer to the desired concentrations. Compounds are added to the 96 well plate containing enzyme and the reaction is started by the addition of substrate. The reaction is read (excitation 340 nm, emission 444 nm) for 10 min. and the increase in fluorescence over time is plotted as a linear line.
# (§3) For either the thiopeptide or fluorescent peptide test procedures, the slope of the line is calculated and represents the reaction rate. The linearity of the reaction rate is confirmed (r^2>0.85). The mean (x±sem) of the control rate is calculated and compared for statistical significance (p<0.05) with drug-treated rates using Dunnett's multiple comparison test. Dose-response relationships can be generated using multiple doses of drug and IC50 values with 95% CI are estimated using linear regression.
# MMP-9 = MMP-9 (Homo sapiens, UniProt P14780); assay: MMP-9 inhibition (thiopeptide or fluorescent peptide substrate); conditions: for MMP9 % inhibition: printed in the MMP9 IC50 column, concentration not given
# MMP-9, sequence (P14780 94-707): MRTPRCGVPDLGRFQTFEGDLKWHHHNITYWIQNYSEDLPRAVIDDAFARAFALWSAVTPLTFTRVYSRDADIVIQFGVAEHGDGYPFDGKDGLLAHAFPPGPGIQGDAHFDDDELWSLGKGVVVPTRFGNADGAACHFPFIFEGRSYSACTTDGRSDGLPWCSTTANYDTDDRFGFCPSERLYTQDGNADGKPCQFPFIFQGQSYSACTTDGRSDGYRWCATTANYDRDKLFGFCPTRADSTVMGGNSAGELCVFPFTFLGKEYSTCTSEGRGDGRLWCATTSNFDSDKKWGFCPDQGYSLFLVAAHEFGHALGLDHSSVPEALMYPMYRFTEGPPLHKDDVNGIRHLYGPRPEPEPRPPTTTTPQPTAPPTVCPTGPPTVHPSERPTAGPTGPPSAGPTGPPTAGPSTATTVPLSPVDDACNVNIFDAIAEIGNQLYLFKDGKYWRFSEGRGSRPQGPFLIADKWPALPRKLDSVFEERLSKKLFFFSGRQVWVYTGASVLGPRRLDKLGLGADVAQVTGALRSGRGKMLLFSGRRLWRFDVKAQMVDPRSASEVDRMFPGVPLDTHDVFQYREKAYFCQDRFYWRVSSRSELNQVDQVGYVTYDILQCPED
# Procedure: as §1, §2, §3
# MMP-13 = MMP-13 (Homo sapiens, UniProt P45452); assay: MMP-13 inhibition (thiopeptide or fluorescent peptide substrate); conditions: for MMP13 % inhibition: MMP13 IC50, concentration not given; for IC50: read-out: MMP13 IC50
# Procedure: The enzyme activity is measured by the rate of the color increase. The thiopeptide substrate is made up fresh as a 20 mM stock in 100% DMSO and the DTNB is dissolved in 100% DMSO as a 100 mM stock and stored in the dark at room temperature. Both the substrate and DTNB are diluted together to 1 mM with substrate buffer (50 mM HEPES pH 7.5, 5 mM CaCl2) before use. The stock of enzyme is diluted with buffer (50 mM HEPES, pH 7.5, 5 mM CaCl2, 0.02% Brij) to the desired final concentration.
# as §2, with “substrate.” for “substrate. The reaction is read (excitation 340 nm, emission 444 nm) for 10 min. and the increase in fluorescence over time is plotted as a linear line.”
# For either the thiopeptide or fluorescent peptide test procedures, the slope of the line is calculated and represents the reaction rate. […] The mean (x±sem) of the control rate is calculated and compared for statistical significance (p<0.05) with drug-treated rates using Dunnett's multiple comparison test.
# TNF-α converting enzyme (TACE), sequence (P78536 215-824): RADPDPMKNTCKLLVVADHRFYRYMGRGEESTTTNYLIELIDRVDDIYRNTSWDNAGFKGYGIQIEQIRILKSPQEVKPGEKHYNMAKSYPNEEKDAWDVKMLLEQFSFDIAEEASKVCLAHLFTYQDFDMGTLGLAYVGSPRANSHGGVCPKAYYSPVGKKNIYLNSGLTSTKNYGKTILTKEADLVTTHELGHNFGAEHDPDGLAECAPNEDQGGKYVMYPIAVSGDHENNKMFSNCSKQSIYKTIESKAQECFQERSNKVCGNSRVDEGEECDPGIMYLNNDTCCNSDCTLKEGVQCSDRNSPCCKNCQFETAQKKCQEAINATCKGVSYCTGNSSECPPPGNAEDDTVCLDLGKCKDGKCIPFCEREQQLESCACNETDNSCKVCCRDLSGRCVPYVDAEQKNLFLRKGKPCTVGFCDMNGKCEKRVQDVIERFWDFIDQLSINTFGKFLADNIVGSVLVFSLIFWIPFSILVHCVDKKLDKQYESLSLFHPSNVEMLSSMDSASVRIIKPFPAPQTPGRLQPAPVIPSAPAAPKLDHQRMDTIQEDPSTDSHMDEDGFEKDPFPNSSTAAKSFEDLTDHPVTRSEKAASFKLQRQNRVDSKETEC
SMILES,IC50 [1],IC50 (MMP-13),further results
"CCCCCC#CCOc1ccc(S(=O)(=O)C2(C(=O)NO)CCN(Cc3ccc(Br)cc3)CC2)cc1 [Example 6, 1-(4-Bromo-benzyl)-4-(4-oct-2-ynyloxy-benzenesulfonyl)-piperdine-4-carboxylic acid hydroxyamide]",393 nM,,MMP1 % inhibition (MMP-1): 32.9%; MMP9 % inhibition (MMP-9): 58.9%; MMP13 % inhibition (MMP-13): 60%
"CC#CCOc1ccc(SC2(C(=O)NO)CCN(C(=O)OC(C)(C)C)CC2)cc1 [Example 14, 4-(4-But-2-ynyloxy-phenylsulfanyl)-4-hydroxycarbamoyl-piperidine-1-carboxylic acid tert-butyl ester]",,,inhibition at 1 µM [1]: 67%; MMP1 % inhibition (MMP-1): 26%; MMP9 % inhibition (MMP-9): 21%; MMP13 % inhibition (MMP-13): 32%
"CC#CCOc1ccc(SC2(C(=O)NO)CCN(Cc3ccc(Br)cc3)CC2)cc1 [Example 16, 1-(4-Bromo-benzyl)-4-(4-but-2-ynyloxy-phenylsulfanyl)-piperidine-4-carboxylic acid hydroxyamide]",,1470 nM,inhibition at 1 µM [1]: 46%; IC50 (MMP-9; read-out: MMP9 IC50): 2060 nM
"CC#CCOc1ccc(S(=O)(=O)CC2(C(=O)NO)CCN(CC)CC2)cc1 [Example 46, 4-({[4-(But-2-ynyloxy)phenyl]sulfonyl}methyl)-1-ethyl-N-hydroxypiperidine-4-carboxamide triflouroacetic acid salt]",105 nM,,MMP13 % inhibition (MMP-13): 55.6%
"CC#CCOc1ccc(S(=O)(=O)CC2(C(=O)NO)CCN(Cc3ccc(Cl)s3)CC2)cc1 [Example 47, 4-({[4-(But-2-ynyloxy)phenyl]sulfonyl}methyl)-1-[(5-chlorothien-2-yl)methyl]-N-hydroxypiperidine-4-carboxamide triflouroacetic acid salt]",227 nM,275 nM,
"CC#CCOc1ccc(S(=O)(=O)CC2(C(=O)NO)CCN(C(=O)c3cccnc3)CC2)cc1 [Example 49, 4-({[4-(But-2-ynyloxy)phenyl]sulfonyl}methyl)-N-hydroxy-1-(pyridin-3-ylcarbonyl)piperidine-4-carboxamide triflouroacetic acid salt]",32.6 nM,1730 nM,
"CC#CCOc1ccc(S(=O)(=O)CC2(C(=O)NO)CCN(C(=O)c3ccccc3)CC2)cc1 [Example 50, 1-Benzoyl-4-({[4-(but-2-ynyloxy)phenyl]sulfonyl}-methyl)-N-hydroxypiperidine-4-carboxamide]",,352 nM,
"CC#CCOc1ccc(S(=O)(=O)CC2(C(=O)NO)CCN(C(=O)NCC)CC2)cc1 [Example 52, 4-({[4-(But-2-ynyloxy)phenyl]sulfonyl}methyl)-N-1-ethyl-N-4-hydroxypiperidine-1,4-dicarboxamide]",41.8 nM,3710 nM,
"CC#CCOc1ccc(S(=O)(=O)CC2(C(=O)NO)CCN(C(=O)Nc3ccccc3)CC2)cc1 [Example 53, 4-({[4-(But-2-ynyloxy)phenyl]sulfonyl}methyl)-N-4-hydroxy-N-1-phenyl-piperidine-1,4-dicarboxamide]",20.8 nM,1160 nM,
"CC#CCOc1ccc(S(=O)(=O)CC2(C(=O)NO)CCN(C(=O)N(CC)CC)CC2)cc1 [Example 54, 4-({[4-(But-2-ynyloxy)phenyl]sulfonyl}methyl)-N-1-,N-1-diethyl-N-4-hydroxypiperidine-1,4-dicarboxamide]",32.2 nM,104 nM,
"CC#CCOc1ccc(S(=O)(=O)CC2(C(=O)NO)CCN(C(=O)N3CCOCC3)CC2)cc1 [Example 55, 4-({[4-(But-2-ynyloxy)phenyl]sulfonyl}methyl)-N-hydroxy-1-(morpholin-4-ylcarbonyl)piperdine-4-carboxamide]",70.7 nM,600 nM,
"CC#CCOc1ccc(S(=O)(=O)CC2(C(=O)NO)CCN(C(=O)N(C)c3ccccc3)CC2)cc1 [Example 56, 4-({[4-(But-2-ynyloxy)phenyl]sulfonyl}methyl)-N-4-hydroxy-N-1-methyl-N-1-phenylpiperidine-1,4-dicarboxamide]",,3.2 nM,
"CC#CCOc1ccc(S(=O)(=O)CC2(C(=O)NO)CCN(C(=O)OCCCCCCCC)CC2)cc1 [Example 57, Octyl-4-({[4-(but-2-ynyloxy)phenyl]sulfonyl}methyl)-4-[(hydroxyamino)-carbonyl]piperidine-1-carboxylate]",694 nM,458 nM,
"CC#CCOc1ccc(S(=O)(=O)CC2(C(=O)NO)CCN(C(=O)Oc3ccc(OC)cc3)CC2)cc1 [Example 58, 4-Methoxyphenyl-4-({[4-(but-2-ynyloxy)phenyl]sulfonyl}methyl)-4-[(hydroxyamino)carbonyl]piperidine-1-carboxylate]",21.1 nM,179 nM,
"CC#CCOc1ccc(S(=O)(=O)CC2(C(=O)NO)CCN(S(=O)(=O)c3ccccc3)CC2)cc1 [Example 59, 4-({[4-(But-2-ynyloxy)phenyl]sulfonyl}methyl)-N-hydroxyl-(phenylsulfonyl)piperidine-4-carboxamide]",53.3 nM,11.2 nM,
"CC#CCOc1ccc(S(=O)(=O)CC2(C(=O)NO)CCN(S(=O)(=O)c3cn(C)cn3)CC2)cc1 [Example 60, 4-({[4-(But-2-ynyloxy)phenyl]sulfonyl}methyl)-N-hydroxy-1-1-[(1-methyl-1H-imidazol-4-yl)-sulfonyl]piperidine-4-carboxamide]",38.4 nM,8 nM,
"CC#CCOc1ccc(S(=O)(=O)CC2(C(=O)NO)CCN(C(=O)CNCc3ccccc3)CC2)cc1 [Example 61, 1-[2-(Benzylamino)acetyl]-4-({[4-(but-2-ynyloxy)phenyl]sulfonyl}methyl)-N-hydroxypiperidine-4-carboxamide]",56.4 nM,575 nM,
"CC#CCOc1ccc(S(=O)(=O)CC2(C(=O)NO)CCN(C(=O)CN3CCN(C)CC3)CC2)cc1 [Example 63, 4-({[4-(But-2-ynyloxy)phenyl]sulfonyl}methyl)-N-hydroxy-1-[2-(4-methylpiperazin-1-yl)acetyl]piperidine-4-carboxamide]",66.6 nM,2230 nM,
